{"source": "patent US20250000865A1", "about": "“COMPOUND FOR REDUCING URIC ACID LEVELS” (NEWSOARA BIOPHARMA CO., LTD., priority 2021, published 2025)", "origin": "cited, not measured here", "conditions": "cited from earlier work"}
{"smiles": "CCc1oc2ccccc2c1C(=O)c1cc(Br)c(O)c(Br)c1", "note": "[benbromarone, Benzbromarone]", "values": [{"measurement": "sUA target level reached", "setting": "after long-term treatment", "result": "< 6", "unit": "mg/dL"}, {"measurement": "side effects", "setting": "in vivo", "result": "hepatotoxicity and acute liver failure"}]}
